Experimental data as given in patent US20090196829A1, “MRI CONTRAST AGENTS AND RELATED METHODS OF USE” (Northwestern University, priority 2008, published 2009).
“And” between values parts separate entries of the source, which are not always exact repeats. Identical values can stand only once.

Columns and labels:
[1] = at 64 MHz; cited from earlier work
NIH-3T3 cells = experiment: T1 measurement from T1 weighted cell pellet images of labeled cells; type: cell-based, mouse; settings: NIH-3T3 cell pellets, 4 hours incubation
Method: In experiments conducted during the course of development of the present invention, 5 and 6 were used to label cells for MR imaging at equal molar concentrations of Gd(III) (FIG. 2B). […] NIH-3T3 cells were incubated for 4 hours at 37° C. and 5% CO2 in complete media containing 5, 6, and Gd-DOTA. The cells were rinsed 3 times in phosphate buffered saline and pelleted in 1 mm capillary tubes. Unlabeled cell pellets were used as a control. T1 values measured for 5, 6, Gd-DOTA and the control cell pellet were 2067.7, 2178.4, 3009.4, and 3480.3 msec respectively. […] Cell studies were done using NIH-3T3 cells cultured in Dulbecco's Modified Eagle's Media supplemented in 10% calf bovine serum and incubated at 37° C., 5% CO2. Cells were incubated with approximately equimolar concentrations of Gd for 4 hours in a 6 well plate. The cells were rinsed 2× with PBS and trypsinized. In 1.5 mL tubes, the cells were fixed for 15 min in 10% buffered neutral formalin and rinsed 2× in PBS. The cells were then pelleted in flame sealed 1 mm capillary tubes. T1 weighted (TR/TE=800/18.3 ms) spin-echo images were acquired at 200 MHz. T1 measurements were obtained by collecting a series of images using a standard spin-echo sequence with a TE of […] and a series of TR (91.5, 200, 300, 400, 500, 750, 1200, 2500, 5000, 10000), 6 signal averages, FOV 2×2 cm, collected into a matrix of 256×128.

[2] = T1 measurement and relaxivity of agents in solution, MR phantoms at 4.7T, 200 MHz; type: physicochemical; settings: nanopure water, per Gd
Method: In experiments conducted during the course of development of the present invention, MR phantoms were imaged using a 4.7T, 200 MHz Bruker Biospec MR Imager with decreasing concentrations of 5, 6 and Gd-DOTA as indicated in FIG. 2A. T1 measurements were obtained and relaxivities were calculated for each compound using the T1 data. Relaxivities for 5, 6 and Gd-DOTA were calculated to be 5.3, 5.1, and 1.0 mM^−1 s^−1 at 200 MHz respectively. At high magnetic field strengths there remained a 5 fold increase in relaxivity per Gd(III) which indicated a 31-37 fold increase in molecular relaxivity.
6, 5 and DOTA-Gd were dissolved in nanopure water at decreasing concentrations and imaged in 1 mm capillary tubes. Concentrations (μM) were as follows from left to right for 6 (73.3, 54.9, 36.6, 22.0, 11.0, 0.0) for 5 (82.1, 61.6, 41.0, 24.6, 12.3, 0.0) and for DOTA-Gd (82.7, 62.0, 41.4, 24.8, 12.4, 0.0). T1 weighted (TR/TE=300/18.3 ms) spin-echo images were acquired at 200 MHz. […]
T1 values were determined using the following equation.
Where SI is the measured signal intensity for each TR, S0 is the signal intensity at infinity.
Relaxivities for each compound were calculated using the T1 data and gadolinium concentrations as determined by ICP-MS analysis. […]

| Relaxivity (linear regression of 1/T1 vs. Gd concentration) [2] [mM⁻¹ s⁻¹] | Compound | relaxivity [1] [mM⁻¹ s⁻¹] | T1 (NIH-3T3 cells; approximately equimolar Gd(III) (7.80, 8.95, 9.00 mM Gd), 200 MHz) | % difference from control (T1) (NIH-3T3 cells; vs unlabeled control pellet) [%] |
| --- | --- | --- | --- | --- |
| – | CNC[C@H](O)[C@@H](O)[C@H](O)[C@H](O)CO.O=C([O-])CN1CCN(CC(=O)[O-])CCN(CC(=O)O)CCN(CC(=O)[O-])CC1.[Gd+3] [Dotarem] | 3.4 | – | – |
| 1.0 | O=C([O-])CN1CCN(CC(=O)[O-])CCN(CC(=O)O)CCN(CC(=O)[O-])CC1.[Gd+3] [Gd-DOTA] | – | 3009.4 ms and 3009.44 ms | 13.53 |
